{"source": "patent US20130243741A1", "about": "“RENILLA/GAUSSIA TRANSFECTED CELLS AS A LIGHT SOURCE FOR IN-SITU PHOTODYNAMIC THERAPY OF CANCER” (KANSAS STATE UNIVERSITY RESEARCH FOUNDATION, priority 2010, published 2013)", "key": {"[1]": {"settings": "cited from earlier work"}, "[2]": {"system": "4T1luc2 breast cancer tumors", "assay": "Deep-tissue PDT treatment of metastatic 4T1 breast cancer in mice", "format": "in vivo, BALB C mice", "settings": "DFO 300 mg/kg i.p.; p-value: 0.65", "procedure": "In this Example, PDT using in-situ generation of light was used to treat metastatic breast cancer in BALB C mice. ALA was used as the only photosensitizer/prodrug, and DFO was used as the iron chelator. The mice were divided into three treatment groups as follows. On Day 0, the mice were inoculated with 4T1luc2 breast cancer cells (100,000/mouse, i.v.). On Day 3, 25 million NSCs were plated as described above for transfection. On Day 4, the cells were transfected with Glue. On Day 5, IVIS imaging with D-luciferin was carried out in the morning to determine tumor size and stratification of the mice. In the afternoon, the mice in Groups 2 and 3 were injected with the transfected cells (1 million/mouse). On Day 7, DFO was administered i.p. (300 mg/kg), as described above. On Day 8, the photosensitizing agent, ALA, was injected i.p. (100 mg/kg). Four hours later, cyclodextrin-complexed coelenterazine was administered i.v. (100 μg) into the tail vein of each mouse. The ALA/coelenterazine procedure was repeated on Day 9, and then on Day 10. The control groups were injected with PBS."}, "[3]": {"system": "B16F10 mouse melanoma cells", "assay": "LED/PDT irradiation experiment with MTT cell proliferation readout", "format": "cell-based", "settings": "no irradiation, RuC2 at 8×10^−5 M", "procedure": "LED-irradiation experiments employing RL5-B12120 Superbright LED's, (Qmax=470 nm, light output 0.0114±0.0008 W) and a light-attenuation system consisting of a series of parallel optical filters was performed. After trypsinization, B16F10 mouse melanoma cells were counted using a hemacytometer and the trypan blue exclusion method, and plated in tissue culture plates (TPP brand, Midwest Scientific). Four hours post-plating, RuC2, TCPP, or a 1:1 mixture of RuC2 and TCPP was added to the plates, with the 1:1 mixture containing each agent at half their respective concentrations to permit comparisons at the same molar concentrations of PDT-agents. The cells were then stored in the dark for 24 hours. Next, the cells were irradiated with high or low intensity of LED light for 45 min. Twenty-four hours post-radiation, MTT cell proliferation reagent (thiazolyl blue) was added to the cells, which were then incubated four hours. Next, SDS-solubilization buffer was added and the cells were incubated for 12 hours. The plates were then read using a plate reader (Spectramax 190) at 550 nm and 690 nm (background establishment)."}, "Redox potentials of RuC2": {"assay": "Redox potentials of RuC2", "format": "physicochemical"}}, "data": [{"smiles": "O=c1c(Cc2ccc(O)cc2)nc2c(Cc3ccccc3)[nH]c(-c3ccc(O)cc3)cn1-2", "note": "[coelenterazine, 2-(4-hydroxybenzyl)-6-(4-hydroxyphenyl)-8-(phenylmethyl)imidazo[1,2-a]pyrazin-3(7H)-one]", "values": [{"measurement": "long-term stability", "setting": "[1]; commercially available material", "value": "not long-term stable"}, {"measurement": "water solubility", "setting": "[1]; native form", "value": "low"}]}, {"smiles": "CC(=O)N(O)CCCCCNC(=O)CCC(=O)N(O)CCCCCNC(=O)CCC(=O)N(O)CCCCCN", "note": "[DFO, deferoxamine]", "values": [{"measurement": "effect of the iron chelator on tumor growth", "setting": "[2]", "value": "mild effect in suppressing tumor growth"}]}, {"smiles": "O=C(O)CC[n+]1ccc(-c2ccnc(-c3cc(-c4cc[n+](CCC(=O)O)cc4)ccn3)c2)cc1.O=C(O)CC[n+]1ccc(-c2ccnc(-c3cc(-c4cc[n+](CCC(=O)O)cc4)ccn3)c2)cc1.O=C(O)CC[n+]1ccc(-c2ccnc(-c3cc(-c4cc[n+](CCC(=O)O)cc4)ccn3)c2)cc1.[Cl-].[Cl-].[Cl-].[Cl-].[Cl-].[Cl-].[Cl-].[Cl-].[Ru+2]", "note": "[RuC2, Tris(N,N′″-bis(2-carboxyethyl)-4,4′:2,2″:4″,4′″-Quaterpyridine-N′N″-dium-N′,N′″) ruthenium(II)octachloride]", "values": [{"measurement": "growth inhibition in the absence of irradiation", "setting": "[3]", "value": "approx. 20%"}, {"measurement": "E0 Ru^2+/1+", "setting": "Redox potentials of RuC2", "value": "−0.477", "unit": "V"}, {"measurement": "photochemical reduction potential E0*Ru^2+/1+", "setting": "Redox potentials of RuC2", "value": 1.670, "unit": "V"}, {"measurement": "oxidation potential E0 Ru^3+/2", "setting": "Redox potentials of RuC2; vs. SHE, pH=7.0", "value": 1.537, "unit": "V"}]}, {"smiles": "O=C(O)c1ccc(-c2c3nc(c(-c4ccc(C(=O)O)cc4)c4ccc([nH]4)c(-c4ccc(C(=O)O)cc4)c4nc(c(-c5ccc(C(=O)O)cc5)c5ccc2[nH]5)C=C4)C=C3)cc1", "note": "[TCPP, tetrakis-4-carboxyphenyl-porphyrin]", "values": [{"measurement": "growth inhibition in the absence of irradiation", "setting": "[3]", "value": "zero"}]}]}
